Laboratory results published in US7410974B2, “Halogenated Quinazolinyl nitrofurans as antibacterial agents” (Ulysses Pharmaceutical Products, Inc., priority 2003, dated 2008).
Converted amounts (≈) assume the structure as drawn.

Tests used:
[1] = tested on: B. cereus, B. subtilis and B. atrophaeus; assay: MIC broth microdilution, Bacillus species; format: cell-based; conditions: three Bacillus species (B. cereus, B. subtilis and B. atrophaeus); data not shown
Method: Minimal Inhibitory Concentration (MIC) Determination. Bacteria (primary strain panel, TABLE 1). Susceptibility tests were performed following the recommendations from the National Committee for Clinical Standards (NCCLS). The MICs were determined by a broth microdilution technique using a final volume of 100 μl of cation-adjusted Mueller Hinton Broth (MHBCA) and a bacterial inoculum of 10^5-10^6 Colony Forming Units (CFU)/ml. The inocula were verified and precisely determined by applying 10-μl drops of 10-fold dilutions onto Triptic Soy Agar plates. The CFU were counted after an incubation of 24 h at 35° C. Any experiment showing an inoculum that was more or less than 10^5-10^6 CFU/ml was rejected. Control antibiotics and test compounds were prepared at a concentration equivalent to 2-fold the highest desired final concentration. Compounds were then diluted directly in the 96-well microtiter plates by serial 2-fold dilutions using a multichannel pipette. Microtiter plates were incubated during 24 h at 35° C. and growth was recorded by using a microtiterplate reader at 650 nm as well as by visual observation. The MIC was defined as the lowest concentration of compound yielding no visible growth. […] Fastidious bacteria. The medium used for Listeria monocytogenes, Neisseria meningitidis, and Campylobacter jejuni was MHBCA containing 2% laked horse blood. […]

S. aureus strain Newman = assay: S. aureus model of systemic infection in the mouse; format: in vivo, Staphylococcus aureus; conditions: CD-1 female mice, i.p. 10^7 CFU S. aureus Newman; oral gavage 15 mg/kg at 1 hour post-infection; kidneys 5 hours after inoculation; FIG. 3
Method: In vivo efficacy. The antimicrobial activity of compounds was also evaluated in a S. aureus model of systemic infection in the mouse. To produce the systemic infection, CD-1 female mice (20 g) were injected intra-peritoneally with 10^7 CFU of S. aureus strain Newman suspended in 0.5 ml of endotoxin-free PBS containing 5% mucin (w/v). The compounds were administrated by oral gavage (15 mg/kg) at 1 hour post-infection and kidneys harvested and pooled, for each animal, 5 hours after bacterial inoculation. Tissues were homogenized in PBS and homogenates serially diluted and plated for CFU determination.

Solubility in water = format: physicochemical; conditions: read-out: solubility in water (no visible particles)
Method: Solubility of Compounds V and XV. The extent of solubility of compounds was evaluated in water.

S. aureus MRSA COL = assay: Minimal Bactericidal Concentration (MBC); format: cell-based; conditions: Staphylococcus aureus, 99.9% killing
Summary of the method: (§1)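 Bactericidal endpoint follows the MIC read: aliquots of every well without visible growth, no fewer than five, go onto TSA. Incubation lasts exactly 24 h at 35° C. Surviving colonies are then counted.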

E. faecium ATCC 35667 = assay: Minimal Bactericidal Concentration (MBC); format: cell-based; conditions: Enterococcus faecium, ATCC35667, 99.9% killing
Summary of the method: as §1

E. coli ATCC 25922 = assay: Minimal Bactericidal Concentration (MBC); format: cell-based; conditions: Escherichia coli, ATCC25922, 99.9% killing
Summary of the method: as §1

S. aureus ATCC 29213 [2] = assay: Minimal Bactericidal Concentration (MBC); format: cell-based; conditions: Staphylococcus aureus, ATCC29213, 99.9% killing
Summary of the method: as §1

H. influenzae ATCC 49766 = assay: Minimal Bactericidal Concentration (MBC); format: cell-based; conditions: Haemophilus influenzae, ATCC49766, 99.9% killing
Summary of the method: as §1

[3] = tested on: S. epidermidis ATCC 12228; assay: Minimal Bactericidal Concentration (MBC); format: cell-based; conditions: Staphylococcus epidermidis, ATCC12228, 99.9% killing
Summary of the method: as §1

E. faecalis ATCC 29212 = assay: Minimal Bactericidal Concentration (MBC); format: cell-based; conditions: Enterococcus faecalis, ATCC29212, 99.9% killing
Summary of the method: as §1

H. influenzae ATCC 49247 = assay: Minimal Bactericidal Concentration (MBC); format: cell-based; conditions: Haemophilus influenzae, ATCC49247, 99.9% killing
Summary of the method: as §1

[4] = tested on: S. saprophyticus ATCC 15305; assay: Minimal Bactericidal Concentration (MBC); format: cell-based; conditions: Staphylococcus saprophyticus, ATCC15305; S. saprophyticus ATCC 15305; 99.9% killing; read-out: MBC
Summary of the method: as §1

B. catarrhalis ATCC 8176 = assay: Minimal Bactericidal Concentration (MBC); format: cell-based, Branhamella (Moraxella) catarrhalis; conditions: Moraxella catarrhalis, ATCC8176, 99.9% killing
Summary of the method: as §1

S. aureus ATCC 29213 [5] = assay: Time-kill curves; format: cell-based, Staphylococcus aureus; conditions: at their respective MIC or a multiple of the MIC
Method: Time-kill curves. The bactericidal action of compounds was also evaluated over time (time-kill curve experiments). A bacterial inoculum of 1×10^5-1×10^7 Colony Forming Units (CFU)/ml was prepared. The inocula were verified and precisely determined by applying 10-μl drops of 10-fold dilutions onto Triptic Soy Agar plates. The CFU were counted after an incubation of 24 h at 35° C. Any experiment showing an inoculum that was more or less than the desired range of CFU/ml was rejected. Time-kill curve experiments were performed in 30 ml of MHB placed in 50-ml shaking flasks over a period of 24 hours. Test compounds and control antibiotics were added at time 0 hour and, at each time point, a sample was removed from flasks and the CFU determined by plate counts as described above. CFU from compound-treated cultures were compared to CFU collected from the control flask without antibiotic. Test compounds and control antibiotics were assayed at the MIC or a multiple of the MIC as determined by a broth microdilution technique as described above.

O=[N+]([O-])c1ccc(C=Cc2nc(Nc3ccc(O)cc3)c3cc(F)ccc3n2)o1 [Compound V, 6-fluoro-2-[2-(5-nitro-2-furyl)vinyl]-4-(p-hydroxyanilino)-quinazoline]
MIC [1]: 0.03 to 0.125 µg/mL (≈ 0.0765 to 0.319 µM)
viable bacteria in the kidneys (S. aureus strain Newman): reduced significantly
solubility (Solubility in water): 250 µg/mL (≈ 637 µM)
MBC (S. aureus MRSA COL): 0.06 µg/mL (≈ 0.153 µM)
MBC (E. faecium ATCC 35667): 0.25 µg/mL (≈ 0.637 µM)
MBC (E. coli ATCC 25922): 0.5 µg/mL (≈ 1.27 µM)
MBC (S. aureus ATCC 29213 [2]): 0.06 µg/mL (≈ 0.153 µM)
MBC (H. influenzae ATCC 49766): 0.06 µg/mL (≈ 0.153 µM)
MBC [3]: 0.03 µg/mL (≈ 0.0765 µM)
MBC (E. faecalis ATCC 29212): 0.03 µg/mL (≈ 0.0765 µM)
MBC (H. influenzae ATCC 49247): 0.06 µg/mL (≈ 0.153 µM)
MBC [4]: 0.03 to 0.06 µg/mL (≈ 0.0765 to 0.153 µM)
MBC (B. catarrhalis ATCC 8176): 0.03 µg/mL (≈ 0.0765 µM)
bactericidal action compared with ciprofloxacin (time-kill) (S. aureus ATCC 29213 [5]): superior to ciprofloxacin
